Counter-ions that a name gives are not always drawn. Like-named read-outs stand apart in the source and are kept apart here.
Tests used:
[1] = test system: FCR3 strain, a drug sensitive strain of Plasmodium falciparum; experiment: In vitro antimalarial assay (p-LDH, Malstat), FCR3 strain; assay type: cell-based; conditions: read-out: Antimalarial activity (IC50 value), Strain FCR3
In short: (§1)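 IC50 derived from concentration-response of parasite lactate dehydrogenase signal (Malstat reagent, NBT/PES formazan at 655 nm) after freeze-thaw lysis. Infected erythrocytes (hematocrit 2%, parasitaemia 0.5 or 1%) exposed 72 h to 12.5–0.0001 μM final compound under 3% O2-4% CO2-93% N2, FCR3 and K1 alike.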

[2] = test system: K1 strain, a drug resistant strain of Plasmodium falciparum; experiment: In vitro antimalarial assay (p-LDH, Malstat), K1 strain; assay type: cell-based; conditions: read-out: Antimalarial activity (IC50 value), Strain K1
In short: as §1

[3] = test system: P. berghei N strain (drug sensitive strain); experiment: In vivo antimalarial assay, mouse model infected with rodent malaria; conditions: Plasmodium berghei, ip, 96 h, read-out: Therapeutical Effect (%) inhibition; for inhibition in vivo at 3 mg/kg: 3 mg/kg i.p.
Protocol: In vivo antimalarial activity of the compound of the present invention was determined using a mouse model infected with rodent malaria P. berghei N strain (drug sensitive strain) by slightly modifying the method described in the above publication of Otoguro et al. (2001) and the method reported by Peters et al. (Peters, W., Portus, J. H. and Robinson, B. L.: The chemotherapy of rodent malaria. XXII. The value of drug-resistant strains of P. berghei in Screening for blood schizonticidal activity. Ann. Trop. Med. Parasitol., 69: 155-171, (1975)). The P. berghei N strain was generous gift from Dr. W. Peters (Northwick Park Institute for Medical Research, Middlesex, United Kingdom).
A group of three ICR male mice (Charles River Laboratories Japan, Inc.) weighing 18 to 20 g was used as a test animal. Using protozoa maintained and sub-cultured by in vivo passage, 2×10^6 parasite-infected erythrocytes were pre pared, and the mice were infected therewith by tail vein injection. For the therapeutic test, a 1-day suppressive test was performed. The day of infection was defined as day 0. Two hours after the infection, a solution of the test compound (solvent: 3% DMSO/0.5% methylcellulose400-solution or suspension) was administered intraperitoneally (i.p.) once to 3 times. On day 4, blood smear preparation was prepared by collecting from the tail vein and the ratio of parasite-infected erythrocytes (parasitaemia) was investigated to determine the therapeutic effect (inhibition percentage) based on the infection rate of the group to which the compound was not administered. The significance test was performed by Dunnett's test.

[4] = P. falciparum FCR3 (drug sensitive), 72 h culture, p-LDH readout
[5] = P. falciparum K1 (drug resistant), 72 h culture, p-LDH readout
[6] = 10 mg/kg i.p., administered once, parasitaemia on day 4, ICR mice
[7] = 10 mg/kg i.p., administered three times (day 0, 1 and 2), parasitaemia on day 4, ICR mice
[8] = 10 mg/kg i.p., administered twice (day 0 and 1), parasitaemia on day 4, ICR mice

Compound | IC50 [1, 4] [nM] | IC50 [2, 5] [nM] | inhibition in vivo at 10 mg/kg [3, 6] [%] | other results
Cc1cc(C)nc(Nc2nc(Nc3ccn4ccnc4c3)cc(N3CCCCC3)n2)c1 [Example 32, N2-(4,6-dimethylpyridin-2-yl)-N4-(imidazo[1,2-a]pyridin-7-yl)-6-(piperidin-1-yl)pyrimidine-2,4-diamine] | < 100 | < 100 | 47.5 | 
CCCc1cccc(Nc2nc(Nc3ccn4ccnc4c3)cc(N3CCCCC3)n2)n1 [Example 105, N4-(imidazo[1,2-a]pyridin-7-yl)-6-(piperidin-1-yl)-N2-(6-propylpyridin-2-yl)pyrimidine-2,4-diamine] | < 100 | < 100 | 41.9 | 
CCc1ccnc(Nc2nc(Nc3ccn4ccnc4c3)cc(N3CCCC3)n2)c1 [Example 94, N2-(4-ethylpyridin-2-yl)-N4-(imidazo[1,2-a]pyridin-7-yl)-6-(pyrrolidin-1-yl)pyrimidine-2,4-diamine] | < 100 | < 100 |  | inhibition in vivo at 3 mg/kg ([3]; administered once, parasitaemia on day 4, ICR mice): 42.9%
CCCCc1cccc(Nc2nc(Nc3ccn4ccnc4c3)cc(N3CCCCC3)n2)n1 [Example 106, N2-(6-butylpyridin-2-yl)-N4-(imidazo[1,2-a]pyridin-7-yl)-6-(piperidin-1-yl)pyrimidine-2,4-diamine] | < 100 | < 100 |  | inhibition in vivo at 10 mg/kg [3, 7]: 87.4%
CCc1ccnc(Nc2nc(Nc3ccn4ccnc4c3)cc(N3CCC(OC)CC3)n2)c1 [Example 114, N2-(4-ethylpyridin-2-yl)-N4-(imidazo[1,2-a]pyridin-7-yl)-6-(4-methoxypiperidin-1-yl)pyrimidine-2,4-diamine] | < 100 | < 100 | 70.9 | 
CCCCc1cccc(Nc2nc(Nc3ccn4ccnc4c3)cc(N3CCCC3)n2)n1 [Example 165, N2-(6-butylpyridin-2-yl)-N4-(imidazo[1,2-a]pyridin-7-yl)-6-(pyrrolidin-1-yl)pyrimidine-2,4-diamine] | < 100 | < 100 |  | inhibition in vivo at 10 mg/kg [3, 8]: 98%
Cc1cc(C)nc(Nc2nc(Nc3ccn4ccnc4c3)cc(N3CC(C)C(C)C3)n2)c1 (stereo not shown) [Example 147, N2-(4,6-dimethylpyridin-2-yl)-6-(3,4-dimethylpyrrolidin-1-yl)-N4-(imidazo[1,2-a]pyridin-7-yl)pyrimidine-2,4-diamine formate] |  |  |  | IC50 ([1]; FCR3, 72 h): < 100 nM; IC50 ([2]; K1, 72 h): < 100 nM; inhibition in vivo at 10 mg/kg [3]: 83.4%
Cc1cccc(Nc2nc(Nc3ccn4ccnc4c3)cc(N3CCCCC3)n2)n1 [Example 28, N4-(imidazo[1,2-a]pyridin-7-yl)-N2-(6-methylpyridin-2-yl)-6-(piperidin-1-yl)pyrimidine-2,4-diamine] | < 100 | < 100 | 51.4 | 
Cc1cc(C)nc(Nc2nc(Nc3ccn4ccnc4c3)cc(N3CCC4(CCCC4)C3)n2)c1 [Example 174, N2-(4,6-dimethylpyridin-2-yl)-N4-(imidazo[1,2-a]pyridin-7-yl)-6-(2-azaspiro[4.4]nonan-2-yl)pyrimidine-2,4-diamine] | < 100 | < 100 |  | inhibition in vivo at 10 mg/kg [3, 8]: 93.6%
CCc1ccnc(Nc2nc(Nc3ccn4ccnc4c3)cc(N3CCC(C)(C)C3)n2)c1 [Example 170, 6-(3,3-dimethylpyrrolidin-1-yl)-N2-(4-ethylpyridin-2-yl)-N4-(imidazo[1,2-a]pyridin-7-yl) pyrimidine-2,4-diamine] | < 100 | < 100 | 92.9 | 
CCc1ccnc(Nc2nc(Nc3ccn4ccnc4c3)cc(N3CCOCC3)n2)c1 [Example 68, N2-(4-ethylpyridin-2-yl)-N4-(imidazo [1,2-a]pyridin-7-yl)-6-morpholinopyrimidine-2,4-diamine] | < 100 | < 100 | 41.7 | 
Cc1ccnc(Nc2nc(Nc3ccn4ccnc4c3)cc(N3CCCCC3)n2)c1 [Example 34, N4-(imidazo[1,2-a]pyridin-7-yl)-N2-(4-methylpyridin-2-yl)-6-(piperidin-1-yl)pyrimidine-2,4-diamine] | 100 to 1000 | < 100 | 51.5 | 
Cc1cc(C)nc(Nc2nc(Nc3ccn4ccnc4c3)cc(N3CCC(C)(C)C3)n2)c1 [Example 142, N2-(4,6-dimethylpyridin-2-yl)-6-(3,3-dimethylpyrrolidin-1-yl)-N4-(imidazo[1,2-a]pyridin-7-yl)pyrimidine-2,4-diamine] | < 100 | < 100 |  | inhibition in vivo at 10 mg/kg [3, 7]: 84.5%
CC(C)Cc1cccc(Nc2nc(Nc3ccn4ccnc4c3)cc(N3CCCC3)n2)n1 [Example 161, N4-(imidazo[1,2-a]pyridin-7-yl)-N2-(6-isobutylpyridin-2-yl)-6-(pyrrolidin-1-yl)pyrimidine-2,4-diamine] | < 100 | < 100 |  | inhibition in vivo at 10 mg/kg [3, 8]: 64.3%
COc1ccnc(Nc2nc(Nc3ccn4ccnc4c3)cc(N3CCCCC3)n2)c1 [Example 93, N4-(imidazo[1,2-a]pyridin-7-yl)-N2-(4-methoxypyridin-2-yl)-6-(piperidin-1-yl)pyrimidine-2,4-diamine] | < 100 | < 100 |  | inhibition in vivo at 3 mg/kg ([3]; administered twice (day 0 and 1), parasitaemia on day 4, ICR mice): 64.2%
CCCCc1cccc(Nc2nc(Nc3ccn4ccnc4c3)cc(N3CCC4(CCOCC4)C3)n2)n1 [Example 169, N2-(6-butylpyridin-2-yl)-N4-(imidazo[1,2-a]pyridin-7-yl)-6-(8-oxa-2-azaspiro[4.5]decan-2-yl) pyrimidine-2,4-diamine] | < 100 | < 100 |  | 
CCc1ccnc(Nc2nc(Nc3ccn4ccnc4c3)cc(N3CCC(N4CCOCC4)CC3)n2)c1 [Example 112, N2-(4-ethylpyridin-2-yl)-N4-(imidazo[1,2-a]pyridin-7-yl)-6-(4-morpholinopiperidin-1-yl)pyrimidine-2,4-diamine] | < 100 | < 100 |  | 
CCCc1cccc(Nc2nc(Nc3ccn4ccnc4c3)cc(N3CCOCC3)n2)n1 [Example 108, N4-(imidazo[1,2-a]pyridin-7-yl)-6-morpholino-N2-(6-propylpyridin-2-yl)pyrimidine-2,4-diamine] | < 100 | 100 to 1000 |  | 
Cc1cc(C)nc(Nc2nc(N)cc(Nc3ccn4ccnc4c3)n2)c1 [Example 58, N2-(4,6-dimethylpyridin-2-yl)-N4-(imidazo[1,2-a]pyridin-7-yl)pyrimidine-2,4,6-triamine] | < 100 | < 100 |  | 
Fc1cccc(Nc2nc(Nc3ccn4ccnc4c3)cc(N3CCOCC3)n2)n1 [Example 14, N2-(6-Fluoropyridin-2-yl)-N4-(imidazo[1,2-a]pyridin-7-yl)-6-morpholinopyrimidine-2,4-diamine] | 100 to 1000 | 1000 to 10000 |  | 

— patent publication US10538521B2, “Pyrimidine derivative having antimalarial activity” (CARNA BIOSCIENCES, INC., priority 2016, dated 2020)
